# In patent US12285462B2, “pH-triggered membrane peptide-mediated epitope tethering at cell surfaces” (UNIVERSITY OF RHODE ISLAND BOARD OF TRUSTEES, priority 2019, dated 2025):
# Primed or numbered codes have the meaning given here. Where no end group is shown, it is not given here. Side-chain parts run from the residue outwards. The star is where a group is joined. Dnp = O=[N+]([O-])c1ccc(*)c([N+](=O)[O-])c1; PEG12′ = not defined here
# Test system: HeLa cells (tumor spheroids)
# Assay: Complement-mediated killing of tumor spheroids (anti-DNP antibody or human IgM, human serum with active complement, PI staining)
# Assay type: cell-based
# Settings: 5 µM construct 1 hour PBS pH6.5, anti-DNP antibody or human IgM 1 hr pH7.4, human serum with active complement and PI, FIG. 8, imaged 2 hours after treatment
# Procedure: The key for induction of immunological response is a proper positioning of epitope at the surface of tumor cells, which was verified on 3-D tumor cancer cell culture (tumor spheroids). Briefly, a 2% agarose solution was made by dissolving in pH 7.4 PBS. 150 μL of the solution was pipetted into each well of a 48-well flat bottom tissue culture plate. After the agarose gel sufficiently settled (˜1 h), 150 μL of DMEM supplemented with 10% FBS and ciprofloxacin-HCl was added to each well. The covered plate was left in a humidified atmosphere at 37° C. and 5% CO2 in cell culture incubator for 24 h. On the next day, the excess medium was removed from the agarose layer. HeLa cells (10,000 cells) in 200 μL of DMEM containing 2% matrigel were added into each well and incubated for 3-4 days to allow the formation of spheroids. Matrigel was dissolved on ice overnight and added in ice cold DMEM at a concentration of 2.5% (to obtain a final concentration of 2% once added to the wells). Then the mixture was heated to 37° C. before being combined with the cells. […] After treatment, the spheroids were washed several times in 1 mL of PBS. Next, spheroids were treated with anti-DNP antibody labeled with 647 nm fluorescent dye at pH 7.4 followed by washing. Spheroids were also stained with DAPI to mark cell nucleus. […]
substance,measurement,value
DNP-PEG12-pHLIP®: DNP-PEG12-NHS conjugated with single Lys residue at N-terminal of pHLIP® peptide Ac-AKDDQNPWRAYLDLLFPTDTLLLDLLWA (SEQ ID NO: 510) (Ac-AK([PEG12′-Dnp])DDQNPWRAYLDLLFPTDTLLLDLLWA),PI staining (red color) of dead or dying cells after complement-mediated attack,plasma membrane of cells was comrpomized by complement-mediated attack and that the cells were dying
